Legend:
Type in all cases: cell-based, human
[1] = tested on: rabdomyosarcoma cells (RH30); test: Cellular proliferation assay (ATP-Lite), RH30 cells
Description: For the purpose of assessing the gene modulation ability of the oligonucleotides of the present invention, the effect of their administration on cell viability was determined. For this purpose 5×10^3 cells per well were seeded into 96-well cell culture plates (experiments conducted in triplicate) with 100 μl of OPTI-MEM (GIBCO BRL) medium containing 4% FBS and 2 mM of L-glutammine. The PNA oligonucleotides were administered at different concentrations (1 μM-2.5 μM-5 μM-10 μM) in order to observe a dose-effect relationship. As regards all the other oligonucleotides, the concentrations at which they administered are listed in the paragraph: The viability of the treated cells was determined at 48, 72, 96 and 168 hours after treatment. Cell viability was assessed by means of an ATP-Lite assay (Luminescence ATP Detection Assay System, PerkinElmer) and is reported as the ratio between the average signal of the treated wells compared to the average value of the wells of untreated control cells. The cells were processed following the instructions provided with the kit. The assays were performed on the same cell lines used to determine the levels of the MYCN gene messenger and listed in the paragraph: Treatments with Oligonucleotides-QT-PCR. The PNAs having SEQ ID NO: 1-12 were also tested on different cell lines which overexpress MYCN (Kelly, SKNBE2c, RH30, […] 1 and H69). The results are shown in Table 6 and confirm the selectivity and specificity of the inhibition effect of the PNAs on the product of protein translation of the MYCN gene. Chimeric oligonucleotides comprising DNA monomers and LNA monomers and having the MYCN gene as their target were tested in vitro on alveolar rabdomyosarcoma cells (RH30). […] The antisense oligonucleotides designed and synthesized by the Applicant according to the parameters described in the present invention were analyzed in vitro on rabdomyosarcoma cells (RH30).

MYCN gene [2] = test: QT-PCR, MYCN mRNA in RH30 cells
Description: For the purpose of assessing the ability of the oligonucleotides of the present invention to modulate the expression of the target genes, their ability to reduce the quantity of messenger RNA was analyzed using the Real-Time PCR technique. For this purpose, use was made of 24-well plates, which were seeded with 5.0×10^4 cells with 0.3 ml of OPTI-MEM (GIBCO BRL) medium, 4% FBS and 2 mM L-glutammine (experiments in triplicate) per well. The cells were incubated for 24 hours at 37° C., in an atmosphere containing 5% CO2 to permit adherence to the base of the wells. Each oligonucleotide analyzed, except for the PNA oligonucleotides, was incubated beforehand with 2 μl of Lipofectamine 2000 (Invitrogen), with 0.3 mL of serum-free OPTI-MEM (GIBCO BRL) medium. For each well, the oligonucleotides were analyzed at the following final concentrations: • the antisense oligonucleotides siRNA and siRNA gapmer (i.e. the oligonucleotides containing one or more monomers of chemically modified nucleic acids at the 3' or 5' end, while in the central portion they have monomers of nucleic acids that have not been modified or have been modified at the level of the phosphodiester bond as a phosphorothioate bond) were used at 200 nM; • the antisense oligonucleotides containing phosphorothioate DNA monomers, the RNA antigene oligonucleotides (agRNA) and the oligonucleotides containing DNA monomers and LNA monomers were used at 10 μM; • the morpholino oligonucleotides were used at a concentration of 1 μM, and • the PNA oligonucleotides were administered at a concentration of 1 μM. The cells were treated with the oligonucleotides, adding FBS up to 4% 6 hours after administration of the same. After 24 hours the total RNA was extracted from each well and purified using the RNeasy Mini Kit (QIAGEN). Assays were performed on 8 cell lines obtained from 5 different human tumours which are correlated with MYCN expression, i.e.: • as a neuroblastoma model use was made of the cell lines Kelly, IMR-32 (where the MYCN gene is amplified and superexpressed) and SKNBE2c and LAN1 (where the MYCN gene is amplified and superexpressed and the p53 gene is mutated); • as a rabdomiosarcoma model use was made of the cell line RH30, where the MYCN gene is amplified and superexpressed; • as a Wilms' tumour model use was made of the cell line WiT49, where the MYCN gene is amplified and superexpressed; • as a retinoblastoma model use was made of the cell line Y79, where the MYCN gene is amplified and superexpressed; and • as a model of small cell lung cancer use was made of the cell line H69 where the MYCN gene is amplified and superexpressed. As a control, use was made of the same cell lines as listed above treated with sterile water instead of oligonucleotides. Each RNA sample was quantified (in duplicate) using a NanoDrop ND-1000 spectrophotometer (NanoDrop Technologies). The first strand of cDNA was produced using the cDNA Synthesis Kit for RT-PCR (Roche). For the cDNA synthesis reaction a total of 1 μg of RNA was used. For the real-time PCR, 10 ng of cDNA in a final volume of 20 μl was used with SYBR Green Master Mix 2× (Applied Biosystems) (3 identical experiments were conducted in triplicate). Two housekeeping genes were used as positive controls: GAPDH and beta-actin (ACTB). The conditions of the QT-PCR reaction were: 10 min at 95° C., 20 sec at 95° C., and 30 sec at 60° C., for 50 cycles. The PNAs having SEQ ID NO: 1-12 were also tested on different cell lines which overexpress MYCN (Kelly, SKNBE2c, RH30, […] 1 and H69). The results are shown in Table 6 and confirm the selectivity and specificity of the inhibition effect of the PNAs on the product of protein translation of the MYCN gene. Chimeric oligonucleotides comprising DNA monomers and LNA monomers and having the MYCN gene as their target were tested in vitro on alveolar rabdomyosarcoma cells (RH30). […]

MYCN gene [3] = test: QT-PCR, MYCN mRNA in Kelly cells; parameters: mRNA Inhibition (%)(Kelly): concentration or dose not given beside the values; details: for mRNA Inhibition (%)(Kelly): Table 7, SEQ ID NO: 5 and guanine-group mutants
Description: For the purpose of assessing the ability of the oligonucleotides of the present invention to modulate the expression of the target genes, their ability to reduce the quantity of messenger RNA was analyzed using the Real-Time PCR technique.
For this purpose, use was made of 24-well plates, which were seeded with 5.0×10^4 cells with 0.3 ml of OPTI-MEM (GIBCO BRL) medium, 4% FBS and 2 mM L-glutammine (experiments in triplicate) per well.
The cells were incubated for 24 hours at 37° C., in an atmosphere containing 5% CO2 to permit adherence to the base of the wells.
Each oligonucleotide analyzed, except for the PNA oligonucleotides, was incubated beforehand with 2 μl of Lipofectamine 2000 (Invitrogen), with 0.3 mL of serum-free OPTI-MEM (GIBCO BRL) medium.
For each well, the oligonucleotides were analyzed at the following final concentrations: • the antisense oligonucleotides siRNA and siRNA gapmer (i.e. the oligonucleotides containing one or more monomers of chemically modified nucleic acids at the 3′ or 5′ end, while in the central portion they have monomers of nucleic acids that have not been modified or have been modified at the level of the phosphodiester bond as a phosphorothioate bond) were used at 200 nM; • the antisense oligonucleotides containing phosphorothioate DNA monomers, the RNA antigene oligonucleotides (agRNA) and the oligonucleotides containing DNA monomers and LNA monomers were used at 10 μM; • the morpholino oligonucleotides were used at a concentration of 1 μM, and • the PNA oligonucleotides were administered at a concentration of 1 μM.
The cells were treated with the oligonucleotides, adding FBS up to 4% 6 hours after administration of the same. After 24 hours the total RNA was extracted from each well and purified using the RNeasy Mini Kit (QIAGEN).
Assays were performed on 8 cell lines obtained from 5 different human tumours which are correlated with MYCN expression, i.e.: • as a neuroblastoma model use was made of the cell lines Kelly, IMR-32 (where the MYCN gene is amplified and superexpressed) and SKNBE2c and LAN1 (where the MYCN gene is amplified and superexpressed and the p53 gene is mutated); • as a rabdomiosarcoma model use was made of the cell line RH30, where the MYCN gene is amplified and superexpressed; • as a Wilms' tumour model use was made of the cell line WiT49, where the MYCN gene is amplified and superexpressed; • as a retinoblastoma model use was made of the cell line Y79, where the MYCN gene is amplified and superexpressed; and • as a model of small cell lung cancer use was made of the cell line H69 where the MYCN gene is amplified and superexpressed.
As a control, use was made of the same cell lines as listed above treated with sterile water instead of oligonucleotides. Each RNA sample was quantified (in duplicate) using a NanoDrop ND-1000 spectrophotometer (NanoDrop Technologies). The first strand of cDNA was produced using the cDNA Synthesis Kit for RT-PCR (Roche). For the cDNA synthesis reaction a total of 1 μg of RNA was used. For the real-time PCR, 10 ng of cDNA in a final volume of 20 μl was used with SYBR Green Master Mix 2× (Applied Biosystems) (3 identical experiments were conducted in triplicate). Two housekeeping genes were used as positive controls: GAPDH and beta-actin (ACTB).
The conditions of the QT-PCR reaction were: 10 min at 95° C., 20 sec at 95° C., and 30 sec at 60° C., for 50 cycles.
(§1) As far as the PNA oligonucleotides are concerned, the results regarding their ability to inhibit the transcription of the MYCN gene and proliferation of Kelly cells are shown in Table 1.
The oligonucleotides were tested in vitro (at a concentration of 2.5 μM) to determine their ability to inhibit the transcription of the gene they are directed against by measuring the levels of the gene messenger in cellular models in which the gene of interest is overexpressed. The methods used are the ones described in example 1. […]

Kelly cells = test: Cellular proliferation assay (ATP-Lite), Kelly cells; details: Table 7, SEQ ID NO: 5 and guanine-group mutants
Description: For the purpose of assessing the gene modulation ability of the oligonucleotides of the present invention, the effect of their administration on cell viability was determined.
For this purpose 5×10^3 cells per well were seeded into 96-well cell culture plates (experiments conducted in triplicate) with 100 μl of OPTI-MEM (GIBCO BRL) medium containing 4% FBS and 2 mM of L-glutammine.
The PNA oligonucleotides were administered at different concentrations (1 μM-2.5 μM-5 μM-10 μM) in order to observe a dose-effect relationship.
As regards all the other oligonucleotides, the concentrations at which they administered are listed in the paragraph:
The viability of the treated cells was determined at 48, 72, 96 and 168 hours after treatment.
Cell viability was assessed by means of an ATP-Lite assay (Luminescence ATP Detection Assay System, PerkinElmer) and is reported as the ratio between the average signal of the treated wells compared to the average value of the wells of untreated control cells. The cells were processed following the instructions provided with the kit.
The assays were performed on the same cell lines used to determine the levels of the MYCN gene messenger and listed in the paragraph: Treatments with Oligonucleotides—QT-PCR.
as §1
The ability of the tested oligonucleotides to inhibit the messenger of the gene of interest was measured and the proliferative capacity of the cells following administration of the oligonucleotides was also assessed.

[4] = Table 8, DNA-LNA oligonucleotides used at 10 μM
[5] = Table 8, DNA-LNA oligonucleotides used at 10 μM with Lipofectamine 2000

| Substance | mRNA Inhibition (%)(Kelly) (MYCN gene [3]) | (Kelly) Cell Prolif. % (Kelly cells) | other results |
| --- | --- | --- | --- |
| SEQ ID NO: 24: single-stranded chimeric DNA-LNA oligonucleotide ATGCCGGGCATGATCT against MYCN (DNA at CT, LNA at AG, backbone and methylation of C not given here) |  |  | Cell Prolif. (%) [1, 4]: 75%; mRNA inhibition (%) (MYCN gene [2]; [5]): 23% |
| SEQ ID NO: 25: single-stranded chimeric DNA-LNA oligonucleotide ATGCCGGGCATGATCT against MYCN (DNA at AG, LNA at CT, backbone and methylation of C not given here) |  |  | Cell Prolif. (%) [1, 4]: 78%; mRNA inhibition (%) (MYCN gene [2]; [5]): 24% |
| SEQ ID NO: 26: double-stranded siRNA against MYCN, sense UGAAGAUGAUGAAGAGGAA, antisense SEQ ID NO: 57 (antisense UUCCUCUUCAUCAUCUUCA; listed as RNA, chemistry not given here) |  |  | Cell Prolif. (%) ([1]; Table 9, siRNA and siRNA gapmer used at 200 nM): 28%; mRNA inhibition (%) (MYCN gene [2]; Table 9, siRNA and siRNA gapmer used at 200 nM with Lipofectamine 2000): 82% |
| SEQ ID NO: 43: PNA GCTGAGTCGATGCGTG, SEQ ID NO: 5 with all groups of consecutive guanines mutated (all peptide nucleic acid (PNA); antigene PNA, 3' carrier peptide conjugation not given here per molecule) | 0% | 100% | inhibitory activity (MYCN gene [3]; all groups of consecutive guanines of SEQ ID NO: 5 mutated): inhibitory activity of the PNAs to be lost |
| SEQ ID NO: 44: PNA GCTGAGTGGATGCGTG, modified SEQ ID NO: 5 with groups of consecutive guanines mutated (all peptide nucleic acid (PNA); antigene PNA, 3' carrier peptide conjugation not given here per molecule) | 25% | 89% |  |
| SEQ ID NO: 45: PNA GCTGGGTCGATGCGGG, modified SEQ ID NO: 5 with a group of consecutive guanines mutated (all peptide nucleic acid (PNA); antigene PNA, 3' carrier peptide conjugation not given here per molecule) | 47% | 69% |  |
| SEQ ID NO: 46: PNA GTTGGGTGGATGTGGG, modified SEQ ID NO: 5 (all peptide nucleic acid (PNA); antigene PNA, 3' carrier peptide conjugation not given here per molecule) | 58% | 60% |  |
